From patent US20110098180A1, “Herbicide-Resistant Plants, And Polynucleotides And Methods For Providing Same” (United States Department of Agriculture, priority 2002, published 2011)

Legend:
[1] = biological target: hydrilla PDS Arg^304 → Cysteine (Hydrilla verticillata, UniProt Q66PY0, R304C); assay: Cross resistance to bleaching herbicides, in vitro PDS inhibition, non-His-tagged (Table 2); assay type: biochemical; conditions: Cysteine at 304; construct in frame with LacZalpha-ccdB, non-His-tagged; read-out: I50
Method: (§1) The expression constructs in Table 2 were derived from an original clone of the susceptible PDS gene from Hydrilla and then the Arg^304 was mutated to the listed amino acid. Expression was under the control of the lac promoter but in frame with the initiation codon of the LacZalpha-ccdB gene in the pCR4-TOPO vector (Invitrogen Inc., CA, Cat. #K4575-01).
(§2) All mutagenesis was performed, unless stated otherwise, using the TOPO-vector containing the wildtype (H4) PDS-sequence, which was extracted from an overnight culture with the Qiagen Plasmid Prep Kit as described above. The amount of the extracted plasmid was diluted to 10 ng/μl and used as template in a mutagenesis-procedure using the QuikChange Site-directed Mutagenesis Kit (Stratagene, Calif., #200518). The design of the mutagenesis-primers was conducted according to the manufacturers protocol to enable the specific change of Arg^304-codon to code for the desired amino acid. Primers (purchased from MWG-Biotech) and their introduced amino acid change are listed below with the changed codon underlined:
(§3) The reactions were performed according to the manufacturers protocol. Reactions were set up in MicroAmp-tubes on ice with 38 μl ddH2O, 5 μl 10× reaction buffer, 2 μl plasmid (10 ng/μl), 1.25 μl forward-mutagenesis primer (100 ng/μl), 1.25 μl of reverse mutagenesis primer (100 ng/μl), 1 μl dNTP-mix and 1 μl PfuTurboDNA polymerase (2.5 U/μl). The reactions were placed in a PE 9700 thermal cycler and heated to 95° C. for 30 sec followed by 12 rounds at 95° C. for 30 sec, 55° C. for 1 min and 68° C. for 12 min. The PCR was followed by a DpnI-digestion and transformation in XL1-Blue supercompetent cells as described in the manual. 4-6 resulting colonies were grown overnight in LB-medium with kanamycin and plasmid DNA was isolated as described above. The plasmid was used as template for sequencing with M13 and internal PDS-primers as described above on a LiCOR-system. Sequences were assembled and analyzed using Seqman. Introduced mutations were identified and plasmids carrying the desired mutation(s) were transferred into competent TOP10-cells, using the transformation protocol from the TOPO TA Cloning Kit. Resulting colonies were grown overnight in Wu-broth with kanamycin, aliquoted and stored at −80° C. until further use. 1 ml of Wu-cultures was used to start 1-L LB-cultures with kanamycin as described before, to express active PDS-enzyme for testing as described.
(§4) Phytoene desaturase activity and its inhibition by herbicides was determined using an in vitro system using components derived from the in vivo production of phytoene and phytoene desaturase proteins. All mutations described in Examples 3 and 4 were tested. […] The clones were used for the heterologous expression of Hydrilla-PDS-enzyme. In particular, bacterial cultures were grown from single colonies overnight in Wu-broth (6.27 g/L K2HPO4, 1.8 g/L KH2PO4, 0.5 g/L Na-citrate, 0.9 g/L (NH4)2SO4, 10 g/L tryptone, 5 g/L yeast extract, 10 g/L NaCl, 44 ml/L glycerol, 0.1 mM MgSO4, pH 7.2) with kanamycin. 1-mL was aliquoted in centrifuge tube and stored at −80° C. For expression, 1 L LB-medium with kanamycin was inoculated with 1-mL Wu-culture and grown for 24 h at 37° C. to stationary phase with shaking at 200 rpm. The cells were collected by centrifugation at 2000×g. All of the following steps were done at 4° C. unless otherwise noted. Active soluble PDS enzyme was extracted by lysing the transformed E. coli cells using a French Press at 20,000 psi in assay buffer consisting of 100 mM Tris-HCl, pH 7.2, 10 mM magnesium-chloride, 0.1 mM NADP, 0.1 mM FAD, 10 mM cysteine, 5 mM DTT, 1 mM aminocaproic acid, and 1 μg/ml leupeptin. The soluble fraction containing PDS activity was obtained by centrifugation for 10 min at 1200×g. After 24 h they were centrifuged down and used in PDS enzyme activity assays as described below.

[2] = test system: hydrilla PDS Arg^304 → Cysteine; assay: as above; assay type: biochemical, Hydrilla verticillata; conditions: Cysteine at 304 relative to Arginine; Table 2
Method: as §1, §2, §3, §4

[3] = biological target: hydrilla PDS Arg^304 → Histidine (Hydrilla verticillata, UniProt Q66PY0, R304H); assay: as above; assay type: biochemical; conditions: Histidine at 304; construct in frame with LacZalpha-ccdB, non-His-tagged; read-out: I50
Method: as §1, §2, §3, §4

[4] = test system: hydrilla PDS Arg^304 → Histidine; assay: as above; assay type: biochemical, Hydrilla verticillata; conditions: Histidine at 304 relative to Arginine; Table 2
Method: as §1, §2, §3, §4

[5] = biological target: hydrilla PDS Arg^304 → Serine (Hydrilla verticillata, UniProt Q66PY0, R304S); assay: as above; assay type: biochemical; conditions: Serine at 304; construct in frame with LacZalpha-ccdB, non-His-tagged; read-out: I50
Method: as §1, §2, §3, §4

[6] = test system: hydrilla PDS Arg^304 → Serine; assay: as above; assay type: biochemical, Hydrilla verticillata; conditions: Serine at 304 relative to Arginine; Table 2
Method: as §1, §2, §3, §4

[7] = biological target: hydrilla PDS position 304 Arginine (wildtype) (Hydrilla verticillata, UniProt Q66PY0); assay: as above; assay type: biochemical; conditions: for R/S: Arginine at 304 (reference), Table 2; for IC50: Arginine at 304, construct in frame with LacZalpha-ccdB, non-His-tagged, read-out: I50
Method: as §1, §2, §3, §4

[8] = biological target: Hydrilla PDS Arg^304 Arginine (wildtype) (Hydrilla verticillata, UniProt Q66PY0); assay: Fluridone enzyme inhibition assay, non-His-tagged PDS (Table 1); assay type: biochemical; conditions: Arginine at 304 (reference)
Method: as §1, with “1” for “2”, “[…]” for “but”
as §2
The reactions were performed according to the manufacturers protocol. […] Sequences were assembled and analyzed using Seqman. […]
Phytoene desaturase activity and its inhibition by herbicides was determined using an in vitro system using components derived from the in vivo production of phytoene and phytoene desaturase proteins. […]

[9] = test system: Synechocystis PDS with mutation corresponding to Leu^542→Arg; conditions: prior work; cited from earlier work

hydrilla PDS position 304 Arginine (wildtype), sequence (Q66PY0 1-580): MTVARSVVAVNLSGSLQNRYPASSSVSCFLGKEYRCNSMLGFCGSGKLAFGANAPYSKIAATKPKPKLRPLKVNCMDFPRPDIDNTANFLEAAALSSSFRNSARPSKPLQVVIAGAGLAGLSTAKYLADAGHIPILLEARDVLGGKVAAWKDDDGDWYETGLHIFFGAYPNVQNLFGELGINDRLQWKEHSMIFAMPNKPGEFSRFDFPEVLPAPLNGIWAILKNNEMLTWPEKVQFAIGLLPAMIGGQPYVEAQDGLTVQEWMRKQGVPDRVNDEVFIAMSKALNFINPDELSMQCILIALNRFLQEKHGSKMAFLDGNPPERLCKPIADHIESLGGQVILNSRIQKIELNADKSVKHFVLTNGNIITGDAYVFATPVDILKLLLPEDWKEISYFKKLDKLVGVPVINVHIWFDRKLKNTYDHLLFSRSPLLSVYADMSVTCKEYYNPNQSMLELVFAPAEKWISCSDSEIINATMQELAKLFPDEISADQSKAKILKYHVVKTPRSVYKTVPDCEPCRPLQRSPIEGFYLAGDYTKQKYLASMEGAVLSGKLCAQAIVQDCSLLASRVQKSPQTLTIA
hydrilla PDS Arg^304 → Serine (Hydrilla verticillata, UniProt Q66PY0, R304S), sequence (Q66PY0 1-580 R304S): as the sequence (Q66PY0 1-580) above, with R304S counted along it
hydrilla PDS Arg^304 → Histidine (Hydrilla verticillata, UniProt Q66PY0, R304H), sequence (Q66PY0 1-580 R304H): as the sequence (Q66PY0 1-580) above, with R304H counted along it
hydrilla PDS Arg^304 → Cysteine (Hydrilla verticillata, UniProt Q66PY0, R304C), sequence (Q66PY0 1-580 R304C): as the sequence (Q66PY0 1-580) above, with R304C counted along it
Hydrilla PDS Arg^304 Arginine (wildtype), sequence (Q66PY0 1-580): as the sequence (Q66PY0 1-580) above

| Molecule | IC50 [1] | R/S [2] | IC50 [3] | R/S [4] | IC50 [5] | R/S [6] | R/S [7] | IC50 [7] | R/S [8] | resistance provided by the mutation [9] |
| --- | --- | --- | --- | --- | --- | --- | --- | --- | --- | --- |
| CCC(Oc1ccc(F)c(C(F)(F)F)c1)C(=O)NCc1ccccc1 (stereo not drawn) [Beflubutamid] | 3.5 µM | 0.8 | 3 µM | 0.7 | 2.6 µM | 0.6 | 1 | 4.3 µM |  |  |
| O=C(Nc1ccc(F)cc1F)c1cccnc1Oc1cccc(C(F)(F)F)c1 [Diflufenican] | 2.1 µM | 0.4 | 2 µM | 0.4 | 1.1 µM | 0.2 | 1 | 5.8 µM |  |  |
| O=C1C(Cl)C(CCl)CN1c1cccc(C(F)(F)F)c1 (stereo not drawn) [Fluorochloridone] | 44.3 µM | 3.6 | 14 µM | 1.1 | 23 µM | 1.9 | 1 | 12.2 µM |  |  |
| CNC1=C(c2cccc(C(F)(F)F)c2)C(=O)C(c2ccccc2)O1 (stereo not drawn) [Flurtamone] | 5.3 µM | 1.9 | 3.3 µM | 1.2 | 5.9 µM | 2.1 | 1 | 2.8 µM |  |  |
| CNc1cnn(-c2cccc(C(F)(F)F)c2)c(=O)c1Cl [Norflurazon] | 89.4 µM | 28.8 | 5 µM | 1.6 | 54.9 µM | 17.7 |  | 3.1 µM |  |  |
| O=C(Nc1ccc(F)cc1)c1cccc(Oc2cccc(C(F)(F)F)c2)n1 [Piconilafen, Picolinafen] | 2.4 µM | 0.4 | 3 µM | 0.5 |  | 0.4 |  | 5.6 µM |  |  |
| Fluridone |  | 3.2 |  | 2.8 |  | 5.5 | 1 |  | 1 | failed to provide resistance |
